From patent US11019820B2 (BASF SE, priority 2013, dated 2021)
Read-outs that look alike come from different tables or passages of the source.

Columns and labels:
Assay type in all cases: in vivo
Nilaparvata lugens = experiment: Rice brown plant hopper (Nilaparvata lugens) rice seedling spray test; conditions: read-out: mortality in comparison with untreated controls
Protocol: (§1) Rice seedlings were cleaned and washed 24 hours before spraying. The active compounds were formulated in 50:50 acetone:water (vol:vol) and 0.1% vol/vol surfactant (EL 620) was added. Potted rice seedlings were sprayed with 5 ml test solution, air dried, placed in cages and inoculated with 10 adults. Treated rice plants were kept at about 28-29° C. and relative humidity of about 50-60%. Percent mortality was recorded after 72 hours.

Myzus persicae = experiment: Green peach aphid (Myzus persicae) systemic artificial diet test; conditions: 72 h, read-out: mortality in comparison with untreated controls (aphid mortality)
Text: For evaluating control of green peach aphid (Myzus persicae) through systemic means the test unit consisted of 96-well-microtiter plates containing liquid artificial diet under an artificial membrane.
The compounds were formulated using a solution containing 75% v/v water and 25% v/v DMSO. Different concentrations of formulated compounds were pipetted into the aphid diet, using a custom built pipetter, at two replications.
After application, 5-8 adult aphids were placed on the artificial membrane inside the microtiter plate wells. The aphids were then allowed to suck on the treated aphid diet and incubated at about 23±1° C. and about 50±5% relative humidity for 3 days. Aphid mortality and fecundity was then visually assessed.

Dichromothrips corbetti = experiment: Orchid thrips (Dichromothrips corbetti) floral-immersion test; conditions: read-out: mortality in comparison with untreated controls
Protocol: Dichromothrips corbetti adults used for bioassay were obtained from a colony maintained continuously under laboratory conditions. For testing purposes, the test compound is diluted in a 1:1 mixture of acetone:water (vol:vol), plus 0.01% vol/vol Alkannuls® EL 620 surfactant.
Thrips potency of each compound was evaluated by using a floral-immersion technique. Plastic petri dishes were used as test arenas. All petals of individual, intact orchid flowers were dipped into treatment solution and allowed to dry. Treated flowers were placed into individual petri dishes along with about 20 adult thrips. The petri dishes were then covered with lids. All test arenas were held under continuous light and a temperature of about 28° C. for duration of the assay. After 3 days, the numbers of live thrips were counted on each flower, and along inner walls of each petri dish. The percent mortality was recorded 72 hours after treatment.

Megoura viciae = experiment: Vetch aphid (Megoura viciae) leaf disk test; conditions: foliar, 120 h, read-out: mortality in comparison with untreated controls (aphid mortality)
Protocol: For evaluating control of vetch aphid (Megoura viciae) through contact or systemic means the test unit consisted of 24-well-microtiter plates containing broad bean leaf disks.
The compounds were formulated using a solution containing 75% v/v water and 25% v/v DMSO. Different concentrations of formulated compounds were sprayed onto the leaf disks at 2.5 μl, using a custom built micro atomizer, at two replications.
After application, the leaf disks were air-dried and 5-8 adult aphids placed on the leaf disks inside the microtiter plate wells. The aphids were then allowed to suck on the treated leaf disks and incubated at about 23±1° C. and about 50±5% relative humidity for 5 days. Aphid mortality and fecundity was then visually assessed.

Anthonomus grandis = experiment: Boll weevil (Anthonomus grandis) diet microtiter plate test; conditions: 120 h, read-out: mortality in comparison with untreated controls (egg and larval mortality)
Protocol: For evaluating control of boll weevil (Anthonomus grandis) the test unit consisted of 96-well-microtiter plates containing an insect diet and 5-10 A. grandis eggs.
(§2) The compounds were formulated using a solution containing 75% v/v water and 25% v/v DMSO. Different concentrations of formulated compounds were sprayed onto the insect diet at 5 μl, using a custom built micro atomizer, at two replications.
After application, microtiter plates were incubated at about 25±1° C. and about 75±5% relative humidity for 5 days. Egg and larval mortality was then visually assessed.

Nephotettix virescens = experiment: Rice green leafhopper (Nephotettix virescens) rice seedling spray test; conditions: read-out: mortality in comparison with untreated controls
Protocol: as §1, with “(vol:vol),” for “(vol:vol)”

Heliothis virescens = experiment: Tobacco budworm (Heliothis virescens) diet microtiter plate test; conditions: 120 h, read-out: mortality in comparison with untreated controls (egg and larval mortality)
Protocol: as §2, with “For evaluating control of tobacco budworm (Heliothis virescens) the test unit consisted of 96-well-microtiter plates containing an insect diet and 15-25 H. virescens eggs. The” for “The”, “at 10” for “at 5”
After application, microtiter plates were incubated at about 28±1° C. and about 80±5% relative humidity for 5 days. Egg and larval mortality was then visually assessed.

[1] = 500 ppm, sprayed rice seedlings, after 72 hours
[2] = 2500 ppm, in aphid diet, 3 days
[3] = 500 ppm, floral immersion, 72 hours after treatment
[4] = 2500 ppm, sprayed broad bean leaf disks, 5 days
[5] = 2500 ppm, sprayed onto insect diet, 5 days

C[C@@H]1C[C@@H](c2cnc(Cl)s2)[n+]2c([O-])c(-c3ccccc3)c(=O)n(C)c21 (racemic) [Compound C-29]
> 75%: mortality at 500 ppm (Nilaparvata lugens; [1]) | mortality at 2500 ppm (Myzus persicae; [2]) | mortality at 500 ppm (Dichromothrips corbetti; [3]) | mortality at 2500 ppm (Megoura viciae; [4]) | mortality at 2500 ppm (Anthonomus grandis; [5])

Cn1c2[n+](c([O-])c(-c3cccc(C(F)(F)F)c3)c1=O)[C@@H](c1cnc(Cl)s1)CC2 (single isomer, unassigned) [Compound C-28]
> 75%: mortality at 500 ppm (Nilaparvata lugens; [1]) | mortality at 500 ppm (Nephotettix virescens; [1]) | mortality at 500 ppm (Dichromothrips corbetti; [3])

C[n+]1c([O-])c(-c2ccccc2)c(=O)n2c1CCC2c1ccc(Cl)nc1 (stereo not drawn) [Compound C-1]
> 75%: mortality at 500 ppm (Nilaparvata lugens; 72 h) | mortality at 500 ppm (Nephotettix virescens; 72 h) | mortality at 2500 ppm (Myzus persicae) | mortality at 500 ppm (Dichromothrips corbetti; 72 h) | mortality at 2500 ppm (Heliothis virescens) | mortality at 2500 ppm (Megoura viciae)

CC[n+]1c([O-])c(-c2ccccc2)c(=O)n2c1CCC2c1ccc(Cl)nc1 (stereo not drawn) [Compound C-2]
> 75%: mortality at 500 ppm (Nephotettix virescens; 72 h) | mortality at 2500 ppm (Myzus persicae) | mortality at 500 ppm (Dichromothrips corbetti; 72 h) | mortality at 2500 ppm (Megoura viciae)

CC(C)[n+]1c([O-])c(-c2ccccc2)c(=O)n2c1CCC2c1ccc(Cl)nc1 (stereo not drawn) [Compound C-3]
> 75%: mortality at 2500 ppm (Myzus persicae) | mortality at 500 ppm (Dichromothrips corbetti; 72 h) | mortality at 2500 ppm (Megoura viciae; in Vicia faba) | mortality at 2500 ppm (Anthonomus grandis)

C[n+]1c([O-])c(-c2ccccc2)c(=O)n2c1CCC2c1cnc(Cl)s1 (stereo not drawn) [Compound C-6, 6-(2-chlorothiazol-5-yl)-1-methyl-4-oxo-3-phenyl-3,6,7,8-tetrahydro-2H-pyrrolo[1,2-a]pyrimidin-5-ium-2-olate]
> 75%: mortality at 500 ppm (Nilaparvata lugens; 72 h) | mortality at 500 ppm (Nephotettix virescens; 72 h) | mortality at 2500 ppm (Myzus persicae) | mortality at 500 ppm (Dichromothrips corbetti; 72 h) | mortality at 2500 ppm (Megoura viciae)

C[n+]1c([O-])c(-c2ccccc2)c(=O)n2c1CCCC2c1ccc(Cl)nc1 (stereo not drawn) [Compound C-8, 6-(6-chloro-3-pyridyl)-1-methyl-4-oxo-3-phenyl-6,7,8,9-tetrahydropyrido[1,2-a]pyrimidin-5-ium-2-olate]
> 75%: mortality at 500 ppm (Nephotettix virescens; 72 h) | mortality at 2500 ppm (Myzus persicae) | mortality at 500 ppm (Dichromothrips corbetti; 72 h) | mortality at 2500 ppm (Megoura viciae)

CSc1ncc(C2CCCc3n2c(=O)c(-c2ccccc2)c([O-])[n+]3C)s1 (stereo not drawn) [Compound C-12]
> 75%: mortality at 2500 ppm (Myzus persicae; [2])

C[n+]1c([O-])c(-c2ccccc2)c(=O)n2c1CCCC2c1cnc(Cl)s1 (stereo not drawn) [Compound C-13]
> 75%: mortality at 2500 ppm (Myzus persicae; [2]) | mortality at 2500 ppm (Megoura viciae; [4])

C=CCn1c([O-])c(-c2ccccc2)c(=O)[n+]2c1CCC2c1cnc(Cl)s1 (stereo not drawn) [Compound C-17]
> 75%: mortality at 2500 ppm (Myzus persicae; [2])

Cn1c2[n+](c([O-])c(-c3ccccc3)c1=O)C(c1cnc(Cl)s1)CO2 (stereo not drawn) [Compound C-19]
> 75%: mortality at 2500 ppm (Megoura viciae)

COC1=NC(c2c[n+]3c(=O)c(-c4ccccc4)c([O-])n(Cc4ccccc4)c3s2)CC1 (stereo not drawn) [Compound C-21]
> 75%: mortality at 2500 ppm (Myzus persicae; [2])

Cn1c2[n+](c([O-])c(-c3cccc(C(F)(F)F)c3)c1=O)C(c1cnc(Cl)s1)CC2 (stereo not drawn) [Compound C-22]
> 75%: mortality at 500 ppm (Nephotettix virescens; [1]) | mortality at 2500 ppm (Myzus persicae; [2]) | mortality at 500 ppm (Dichromothrips corbetti; [3]) | mortality at 2500 ppm (Megoura viciae; [4])

Cn1c2[n+](c([O-])c(-c3ccccc3)c1=O)C(c1cnc(Cl)c(-c3ccccc3)c1)CC2 (stereo not drawn) [Compound C-23]
> 75%: mortality at 2500 ppm (Myzus persicae; [2])

CCn1c([O-])c(-c2ccccc2)c(=O)[n+]2c1CCC2c1cnc(Cl)s1 (stereo not drawn) [Compound C-24]
> 75%: mortality at 500 ppm (Nilaparvata lugens; [1]) | mortality at 500 ppm (Nephotettix virescens; [1]) | mortality at 2500 ppm (Myzus persicae; [2]) | mortality at 500 ppm (Dichromothrips corbetti; [3]) | mortality at 2500 ppm (Megoura viciae; [4])

CCn1c([O-])c(-c2cccc(C(F)(F)F)c2)c(=O)[n+]2c1CCC2c1cnc(Cl)s1 (stereo not drawn) [Compound C-27]
> 75%: mortality at 2500 ppm (Myzus persicae; [2]) | mortality at 500 ppm (Dichromothrips corbetti; [3]) | mortality at 2500 ppm (Megoura viciae; [4])

C=CCn1c([O-])c(-c2cc(Cl)cc(Cl)c2)c(=O)[n+]2c1CCC2c1cnc(Cl)s1 (stereo not drawn) [Compound C-31]
> 75%: mortality at 2500 ppm (Myzus persicae; [2]) | mortality at 2500 ppm (Megoura viciae; [4])

CCn1c([O-])c(-c2cccc(C(F)(F)F)c2)c(=O)[n+]2c1COC2c1ccc(Cl)nc1 (stereo not drawn) [Compound C-32]
> 75%: mortality at 2500 ppm (Myzus persicae)

O=c1c(-c2ccccc2)c([O-])n(Cc2ccccc2)c2[n+]1C(c1cnc(Cl)s1)CC2 (stereo not drawn) [Compound C-34]
> 75%: mortality at 2500 ppm (Myzus persicae; [2]) | mortality at 500 ppm (Dichromothrips corbetti; [3]) | mortality at 2500 ppm (Megoura viciae; [4])

CCn1c([O-])c(-c2cccc(C(F)(F)F)c2)c(=O)[n+]2c1COC2c1cnc(Cl)s1 (stereo not drawn) [Compound C-35]
> 75%: mortality at 500 ppm (Dichromothrips corbetti; [3])

CN1C(=O)C(c2ccccc2)=C([O-])[N+]2=C(c3cnc(Cl)s3)CSC12 (stereo not drawn) [Compound C-38]
> 75%: mortality at 500 ppm (Nilaparvata lugens; [1]) | mortality at 500 ppm (Nephotettix virescens; [1]) | mortality at 2500 ppm (Myzus persicae; [2]) | mortality at 500 ppm (Dichromothrips corbetti; [3]) | mortality at 2500 ppm (Heliothis virescens; [5]) | mortality at 2500 ppm (Megoura viciae; [4])

Cn1c2[n+](c([O-])c(-c3ccccc3)c1=O)C(c1cnc(Cl)s1)CC2(C)C (stereo not drawn) [Compound C-40]
> 75%: mortality at 2500 ppm (Myzus persicae; [2]) | mortality at 2500 ppm (Megoura viciae; [4]) | mortality at 2500 ppm (Anthonomus grandis; [5])

C=CCn1c([O-])c(-c2cccc(C(F)(F)F)c2)c(=O)[n+]2c1CCC2c1cnc(Cl)s1 (stereo not drawn) [Compound C-41]
> 75%: mortality at 2500 ppm (Myzus persicae; [2])

CCn1c([O-])c(-c2cccc(-c3ccccc3)c2)c(=O)[n+]2c1COC2c1ccc(Cl)nc1 (stereo not drawn) [Compound C-43]
> 75%: mortality at 2500 ppm (Myzus persicae; [2])

CCn1c([O-])c(-c2cc(Cl)cc(Cl)c2)c(=O)[n+]2c1COC2c1ccc(Cl)nc1 (stereo not drawn) [Compound C-44]
> 75%: mortality at 2500 ppm (Myzus persicae) | mortality at 2500 ppm (Heliothis virescens) | mortality at 2500 ppm (Megoura viciae) | mortality at 2500 ppm (Anthonomus grandis)

Cn1c2[n+](c([O-])c(-c3cccc(-c4ccccc4)c3)c1=O)C(c1cnc(Cl)s1)CC2 (stereo not drawn) [Compound C-45]
> 75%: mortality at 2500 ppm (Myzus persicae; [2]) | mortality at 500 ppm (Dichromothrips corbetti; [3]) | mortality at 2500 ppm (Heliothis virescens; [5]) | mortality at 2500 ppm (Megoura viciae; [4])

CCn1c([O-])c(-c2ccc(OC)cc2)c(=O)[n+]2c1CCC2c1cnc(Cl)s1 (stereo not drawn) [Compound C-47]
> 75%: mortality at 500 ppm (Nephotettix virescens; [1]) | mortality at 2500 ppm (Myzus persicae; [2]) | mortality at 500 ppm (Dichromothrips corbetti; [3]) | mortality at 2500 ppm (Megoura viciae; [4]) | mortality at 2500 ppm (Anthonomus grandis; [5])

Cn1c2[n+](c([O-])c(-c3cccc(-c4ncc(C(F)(F)F)cc4Cl)c3)c1=O)C(c1cnc(Cl)s1)CC2 (stereo not drawn) [Compound C-48]
> 75%: mortality at 2500 ppm (Myzus persicae; [2]) | mortality at 500 ppm (Dichromothrips corbetti; [3]) | mortality at 2500 ppm (Megoura viciae; [4])

CCn1c([O-])c(-c2cccc(-c3ccccc3)c2)c(=O)[n+]2c1CCC2c1cnc(Cl)s1 (stereo not drawn) [Compound C-49]
> 75%: mortality at 2500 ppm (Myzus persicae; [2]) | mortality at 500 ppm (Dichromothrips corbetti; [3]) | mortality at 2500 ppm (Megoura viciae; [4])

Cn1c2[n+](c([O-])c(-c3cc(Cl)cc(Cl)c3)c1=O)C(c1cnc(Cl)s1)CC2 (stereo not drawn) [Compound C-50]
> 75%: mortality at 2500 ppm (Myzus persicae; [2]) | mortality at 500 ppm (Dichromothrips corbetti; [3]) | mortality at 2500 ppm (Megoura viciae; [4])
